Read-outs that look alike come from different tables or passages of the source.
Tests used:
Format in all cases: cell-based
[1] = tested on: ER-transactivation in MVLNs; assay: ER-transactivation in MVLN luciferase cells co-cultured with HepaRG cells in the device; conditions: MVLN co-cultured with HepaRG vs mono-culture; FIG. 18C
HEK293 cells [2] = tested on: HEK293 cells
HEK293 cells [3] = assay: Conferred cytotoxicity assay, HEK293 cells in co-culture with primary human hepatocytes in the device; conditions: primary human hepatocytes (PHH) as bioactivator vs HEK293 mono-culture; FIG. 18a,b
[4] = tested on: estrogen receptor driven luciferase reporter protein stably expressed in the MVLN cell line; assay: MVLN estrogen receptor driven luciferase reporter assay, co-culture with HepG2 cells in the device

## Oc1ccc(Cc2ccccc2)cc1 [4-benzylphenol]
[1]
  ER-transactivation in MVLNs (metabolic competence of the device): shows competence

## COc1cc2c(c3oc(=O)c4c(c13)CCC4=O)[C@@H]1C=CO[C@@H]1O2 [aflatoxin]
HEK293 cells [2]
  conferred toxicity to HEK293 cells: conferred toxicity

## COc1cccc2c1C(=O)c1c(O)c3c(c(O)c1C2=O)C[C@@](O)(C(=O)CO)C[C@@H]3O[C@H]1C[C@H](N)[C@H](O)[C@H](C)O1 [doxorubicin]
HEK293 cells [3]
  conferred toxicity to HEK293 cells: conferred toxicity

## C[C@]12CC[C@H]3[C@@H](CCC4=CC(=O)CC[C@@]43C)[C@@H]1CC[C@@H]2O [testosterone]
[4]
  MVLN reporter activity: activates MVLN reporter activity

From patent US10518266B2, “Microtiter plate and uses thereof” (ONEXIO BIOSYSTEMS LLC, priority 2016, dated 2019)
